Data from article PMC12077208 (mBio, 2025).

Columns and labels:
SARS-CoV-2 = conditions: cited from earlier work
NTF2L domain of G3BP1 [1] = assay: SEC-MALS of peptide–NTF2L complexes; format: physicochemical, human; conditions: ~2 mg/mL in PBS pH 7.4, Superdex 200 Increase 10/300 GL; for M.W., molecular weight of the peptide–NTF2L complex: 0.5 mL/min, value given in figure
[2] = target: T1, NTF2L domain of G3BP1 (residues 1–138) (Homo sapiens, UniProt Q13283); assay: Isothermal titration calorimetry (ITC) of peptides with NTF2L; format: binding; conditions: for n, molar ratio: 20°C
T1 construct: 6xHis tag with TEV protease cleavage site (N, cleaved yes); made in house; host or cells: Escherichia coli BL21 (DE3)

endogenous G3BP1 = assay: Co-immunoprecipitation with endogenous G3BP1 in HEK293T cells; format: cell-based; conditions: Co-IP, Flag magnetic beads, HEK293T cells lysed 36 h after transfection (3xFlag-mCherry constructs)
Protocol: HEK293T cells were seeded into a six-well cell culture plate and then transfected with the recombinant plasmids using TransIntro PEI Transfection Reagent (TransGen Biotech, FT401-01). Thirty-six hours after transfection, the cells were lysed with cell lysis buffer (Beyotime, P0013J) supplemented with proteinase inhibitor phenylmethylsulfonyl fluoride (Solarbio, P8340). Cell lysates were then centrifuged, and the supernatants were immunoprecipitated with Flag magnetic beads (LABLEAD, PFM025). Beads were washed three times with washing buffer (50 mM Tris-HCl, 500 mM NaCl, 0.1% Triton X-100, 1 mM EDTA, pH 7.5). Cell lysates or immunoprecipitants were analyzed with immunoblotting.
The proteins were then transferred to polyvinylidene fluoride membranes. Membranes were blocked for 4 h with 5% non-fat dry milk solution in Tris-buffered saline containing 0.1% Tween-20 (TBST) and then incubated with primary antibodies mouse anti-G3BP1 (Santa Cruz, sc-365338), mouse anti-Flag (Proteintech, 66008-4-Ig), and rabbit anti-β-actin (Proteintech, 81115-1-RR) overnight at 4°C. The membranes were washed with TBST and then incubated with the corresponding secondary antibodies. Proteins were visualized by SuperKine West Femto Maximum Sensitivity Substrate according to the manufacturer’s instruction (Abbkine, BMU102).

NTF2L domain of G3BP1 [3] = assay: Size-exclusion chromatography (SEC) of NTF2L incubated with peptide: high-order oligomer formation; format: binding, human; conditions: peptide mixed with NTF2L, incubated at 4°C overnight, Superdex 200 Increase 10/300 GL
lung cancer cell = conditions: through targeting G3BP1; cited from earlier work

T1 sequence (Q13283 1-138): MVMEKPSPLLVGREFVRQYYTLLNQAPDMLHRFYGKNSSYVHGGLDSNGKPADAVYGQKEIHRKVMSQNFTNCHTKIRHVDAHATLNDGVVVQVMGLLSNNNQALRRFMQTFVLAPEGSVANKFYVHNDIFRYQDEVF

Cc1ccc(NC(=O)c2ccc(CN3CCN(C)CC3)cc2)cc1Nc1nccc(-c2cccnc2)n1 [imatinib]
inhibition of SARS-CoV-2 propagation (SARS-CoV-2): inhibit SARS-CoV-2 propagation

CC[C@H](C)[C@H](NC(=O)[C@H](CCC(=O)O)NC(=O)CNC(=O)[C@H](CC(=O)O)NC(=O)[C@H](CC(N)=O)NC(=O)[C@H](Cc1ccccc1)NC(=O)[C@H](CC(=O)O)NC(=O)CNC(=O)[C@H](Cc1ccccc1)NC(=O)[C@@H](NC(=O)[C@@H](NC(=O)[C@@H]1CCCN1C(=O)[C@H](Cc1ccccc1)NC(=O)[C@@H](NC(=O)[C@H](CCC(=O)O)NC(=O)[C@H](CO)NC(=O)CNC(=O)[C@H](CC(C)C)NC(=O)[C@@H]1CCCN1C(=O)CN)[C@@H](C)O)[C@@H](C)CC)[C@@H](C)O)C(=O)N[C@@H](CCC(=O)O)C(=O)N[C@@H](CO)C(=O)N[C@@H](CC(C)C)C(=O)N[C@@H](CO)C(=O)N[C@@H](CO)C(=O)N[C@@H](CCC(=O)O)C(=O)N[C@@H](CC(C)C)C(=O)N[C@@H](CC(C)C)C(=O)N[C@H](C(=O)N[C@@H](Cc1ccccc1)C(=O)NCC(=O)N[C@@H](CC(=O)O)C(=O)N[C@@H](Cc1ccccc1)C(=O)N[C@@H](CC(C)C)C(=O)N1CCC[C@H]1C(=O)NCC(=O)N[C@@H](C)C(=O)N[C@H](C(=O)N[C@@H](C)C(=O)N[C@@H](CC(=O)O)C(=O)N[C@@H](CC(C)C)C(=O)N[C@H](C(=O)N[C@@H](CC(=O)O)C(=O)N[C@@H](CO)C(=O)N[C@@H](CC(=O)O)C(=O)N[C@@H](Cc1c[nH]c2ccccc12)C(=O)N[C@@H](CO)C(=O)N[C@H](C(=O)N[C@@H](Cc1c[nH]cn1)C(=O)N[C@@H](Cc1c[nH]cn1)C(=O)N[C@@H](Cc1c[nH]cn1)C(=O)N[C@@H](Cc1c[nH]cn1)C(=O)N[C@@H](Cc1c[nH]cn1)C(=O)N[C@@H](Cc1c[nH]cn1)C(=O)O)[C@@H](C)O)[C@@H](C)O)C(C)C)[C@@H](C)O [CHIKV-43 mut]
M.W., molecular weight of the peptide–NTF2L complex (NTF2L domain of G3BP1 [1]): 58.7 ± 0.42 kDa | n, molar ratio ([2]; HEPES buffer pH 7.5, 200 µM peptide injected into 40 µM NTF2L): 0.6 ± 0.02 | fold reduction of binding affinity with NTF2L ([2]; compared to that of CHIKV-43 with NTF2L): ~ 15 fold

Nc1ncn([C@H]2C[C@H](O)[C@@H](CO)O2)c(=O)n1 [decitabine]
inhibition of SARS-CoV-2 propagation (SARS-CoV-2): inhibit SARS-CoV-2 propagation

CC[C@H](C)[C@H](NC(=O)[C@H](CCC(=O)O)NC(=O)CNC(=O)[C@H](CC(=O)O)NC(=O)[C@H](CC(N)=O)NC(=O)[C@H](Cc1ccccc1)NC(=O)[C@H](CC(=O)O)NC(=O)CNC(=O)[C@H](Cc1ccccc1)NC(=O)[C@@H](NC(=O)[C@@H](NC(=O)[C@@H]1CCCN1C(=O)[C@H](Cc1ccccc1)NC(=O)[C@@H](NC(=O)[C@H](CCC(=O)O)NC(=O)[C@H](CO)NC(=O)CNC(=O)[C@H](CC(C)C)NC(=O)[C@@H]1CCCN1C(=O)CN)[C@@H](C)O)[C@@H](C)CC)[C@@H](C)O)C(=O)N[C@@H](CCC(=O)O)C(=O)N[C@@H](CO)C(=O)N[C@@H](CC(C)C)C(=O)N[C@@H](CO)C(=O)N[C@@H](CO)C(=O)N[C@@H](CCC(=O)O)C(=O)N[C@@H](CC(C)C)C(=O)N[C@@H](CC(C)C)C(=O)N[C@H](C(=O)N[C@@H](Cc1ccccc1)C(=O)NCC(=O)N[C@@H](CC(=O)O)C(=O)N[C@@H](Cc1ccccc1)C(=O)N[C@@H](CC(C)C)C(=O)N1CCC[C@H]1C(=O)NCC(=O)N[C@@H](CCC(=O)O)C(=O)N[C@H](C(=O)N[C@@H](CC(=O)O)C(=O)N[C@@H](CC(=O)O)C(=O)N[C@@H](CC(C)C)C(=O)N[C@H](C(=O)N[C@@H](CC(=O)O)C(=O)N[C@@H](CO)C(=O)N[C@@H](CC(=O)O)C(=O)N[C@@H](Cc1c[nH]c2ccccc12)C(=O)N[C@@H](CO)C(=O)N[C@H](C(=O)N[C@@H](Cc1c[nH]cn1)C(=O)N[C@@H](Cc1c[nH]cn1)C(=O)N[C@@H](Cc1c[nH]cn1)C(=O)N[C@@H](Cc1c[nH]cn1)C(=O)N[C@@H](Cc1c[nH]cn1)C(=O)N[C@@H](Cc1c[nH]cn1)C(=O)O)[C@@H](C)O)[C@@H](C)O)C(C)C)[C@@H](C)O [CHIKV-43]
interaction with endogenous G3BP1 (endogenous G3BP1): obviously interact with G3BP1 | M.W., molecular weight of the peptide–NTF2L complex (NTF2L domain of G3BP1 [1]): 314.1 ± 0.28 kDa | approximate M.W. of the peptide–NTF2L complex (NTF2L domain of G3BP1 [1]; rounded value of text): approximately 310 kDa | SEC peak / high-order oligomer formation with NTF2L (NTF2L domain of G3BP1 [3]): formed a stable peak | n, molar ratio ([2]; HEPES buffer pH 7.5, 50 µM peptide injected into 10 µM NTF2L): 0.6 ± 0.002

O=C(O[C@@H]1Cc2c(O)cc(O)cc2O[C@@H]1c1cc(O)c(O)c(O)c1)c1cc(O)c(O)c(O)c1 [Epigallocatechin gallate]
effect on lung cancer cell growth (lung cancer cell): inhibits lung cancer cell growth
